Data as given in PubChem BioAssay (NCI).
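Abbreviation: GI50, concentration required for 50% inhibition of growth. TGI denotes the concentration required for complete inhibition of growth.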

Assays:
Assay in all cases: NCI tumour cell line growth inhibition, 384-well format; in the data active = GI50 below about 0.43 µM; inactive = the rest
786-0 renal = tested on: 786-0 renal
SN12C renal = tested on: SN12C renal
SK-MEL-28 melanoma = tested on: SK-MEL-28 melanoma
K-562 leukemia = tested on: K-562 leukemia
RXF 393 renal = tested on: RXF 393 renal
IGROV1 ovarian = tested on: IGROV1 ovarian
M14 melanoma = tested on: M14 melanoma
MALME-3M melanoma = tested on: MALME-3M melanoma
OVCAR-8 ovarian = tested on: OVCAR-8 ovarian
COLO 205 colon = tested on: COLO 205 colon
SK-OV-3 ovarian = tested on: SK-OV-3 ovarian
EKVX NSCLC = tested on: EKVX NSCLC
NCI-H522 lung = tested on: NCI-H522 lung
HCC-2998 colon = tested on: HCC-2998 colon
BT-549 breast = tested on: BT-549 breast
ACHN renal = tested on: ACHN renal
UO-31 renal = tested on: UO-31 renal
MCF7 breast = tested on: MCF7 breast
HCT-15 colon = tested on: HCT-15 colon
MDA-MB-231 breast = tested on: MDA-MB-231 breast
HOP-62 NSCLC = tested on: HOP-62 NSCLC
MOLT-4 leukemia = tested on: MOLT-4 leukemia
MDA-MB-435 melanoma = tested on: MDA-MB-435 melanoma
SF-539 CNS = tested on: SF-539 CNS
OVCAR-4 ovarian = tested on: OVCAR-4 ovarian
LOX IMVI melanoma = tested on: LOX IMVI melanoma
SK-MEL-2 melanoma = tested on: SK-MEL-2 melanoma
HOP-92 NSCLC = tested on: HOP-92 NSCLC
HS 578T breast = tested on: HS 578T breast
OVCAR-5 ovarian = tested on: OVCAR-5 ovarian
OVCAR-3 ovarian = tested on: OVCAR-3 ovarian
SW-620 colon = tested on: SW-620 colon
SF-295 CNS = tested on: SF-295 CNS
CAKI-1 renal = tested on: CAKI-1 renal
HCT-116 colon = tested on: HCT-116 colon
SNB-19 CNS = tested on: SNB-19 CNS
U251 glioblastoma = tested on: U251 glioblastoma
SNB-75 CNS = tested on: SNB-75 CNS
KM12 colon = tested on: KM12 colon
UACC-62 melanoma = tested on: UACC-62 melanoma
SK-MEL-5 melanoma = tested on: SK-MEL-5 melanoma
NCI/ADR-RES ovarian = tested on: NCI/ADR-RES ovarian
HT29 colon = tested on: HT29 colon
DU-145 prostate = tested on: DU-145 prostate
A498 renal = tested on: A498 renal
UACC-257 melanoma = tested on: UACC-257 melanoma
NCI-H322M lung = tested on: NCI-H322M lung

CC(O)[C@H](NC(=O)N[C@@H](CC(N)=O)c1nc(N2CCNCC2)no1)C(=O)O (some centres undefined)
> 100 µM: TGI (786-0 renal) | TGI (SN12C renal) | TGI (SK-MEL-28 melanoma) | TGI (K-562 leukemia) | TGI (RXF 393 renal) | TGI (IGROV1 ovarian) | TGI (M14 melanoma) | TGI (MALME-3M melanoma) | TGI (OVCAR-8 ovarian) | TGI (COLO 205 colon) | TGI (SK-OV-3 ovarian) | TGI (EKVX NSCLC) | TGI (NCI-H522 lung) | TGI (HCC-2998 colon) | TGI (BT-549 breast) | TGI (ACHN renal) | TGI (UO-31 renal) | TGI (MCF7 breast) | TGI (HCT-15 colon) | TGI (MDA-MB-231 breast) | TGI (HOP-62 NSCLC) | TGI (MOLT-4 leukemia) | TGI (MDA-MB-435 melanoma) | TGI (SF-539 CNS) | TGI (OVCAR-4 ovarian) | TGI (LOX IMVI melanoma) | TGI (SK-MEL-2 melanoma) | TGI (HOP-92 NSCLC) | TGI (HS 578T breast) | TGI (OVCAR-5 ovarian) | TGI (OVCAR-3 ovarian) | TGI (SW-620 colon) | TGI (SF-295 CNS) | TGI (CAKI-1 renal) | TGI (HCT-116 colon) | TGI (SNB-19 CNS) | TGI (U251 glioblastoma) | TGI (SNB-75 CNS) | TGI (KM12 colon) | TGI (UACC-62 melanoma) | TGI (SK-MEL-5 melanoma) | TGI (NCI/ADR-RES ovarian) | TGI (HT29 colon) | TGI (DU-145 prostate) | TGI (A498 renal) | TGI (UACC-257 melanoma) | TGI (NCI-H322M lung)
inactive: GI50 ([…]-0 renal) > 100 µM | GI50 (SN12C renal) > 100 µM | GI50 (SK-MEL-28 melanoma) > 100 µM | GI50 (K-562 leukemia) > 100 µM | GI50 (RXF 393 renal) > 100 µM | GI50 (IGROV1 ovarian) > 100 µM | GI50 (M14 melanoma) > 100 µM | GI50 (MALME-3M melanoma) > 100 µM | GI50 (OVCAR-8 ovarian) > 100 µM | GI50 (COLO 205 colon) > 100 µM | GI50 (SK-OV-3 ovarian) > 100 µM | GI50 (EKVX NSCLC) > 100 µM | GI50 (NCI-H522 lung) > 100 µM | GI50 (HCC-2998 colon) > 100 µM | GI50 (BT-549 breast) > 100 µM | GI50 (ACHN renal) > 100 µM | GI50 (UO-31 renal) > 100 µM | GI50 (MCF7 breast) > 100 µM | GI50 (HCT-15 colon) > 100 µM | GI50 (MDA-MB-231 breast) > 100 µM | GI50 (HOP-62 NSCLC) > 100 µM | GI50 (MOLT-4 leukemia) > 100 µM | GI50 (MDA-MB-435 melanoma) > 100 µM | GI50 (SF-539 CNS) > 100 µM | GI50 (OVCAR-4 ovarian) > 100 µM | GI50 (LOX IMVI melanoma) > 100 µM | GI50 (SK-MEL-2 melanoma) > 100 µM | GI50 (HOP-92 NSCLC) > 100 µM | GI50 (HS 578T breast) > 100 µM | GI50 (OVCAR-5 ovarian) > 100 µM | GI50 (OVCAR-3 ovarian) > 100 µM | GI50 (SW-620 colon) > 100 µM | GI50 (SF-295 CNS) > 100 µM | GI50 (CAKI-1 renal) > 100 µM | GI50 (HCT-116 colon) > 100 µM | GI50 (SNB-19 CNS) > 100 µM | GI50 (U251 glioblastoma) > 100 µM | GI50 (SNB-75 CNS) > 100 µM | GI50 (KM12 colon) > 100 µM | GI50 (UACC-62 melanoma) > 100 µM | GI50 (SK-MEL-5 melanoma) > 100 µM | GI50 (NCI/ADR-RES ovarian) > 100 µM | GI50 (HT29 colon) > 100 µM | GI50 (DU-145 prostate) > 100 µM | GI50 (A498 renal) > 100 µM | GI50 (UACC-257 melanoma) > 100 µM | GI50 (NCI-H322M lung) > 100 µM
